The results in this text go back to ChEMBL document CHEMBL1127115, “Synthesis and antihypertensive activity of KC-399, a benzopyran K+ channel opener with long duration of action and less tachycardia” (Bioorg Med Chem Lett, 1993).

The EC50 is the concentration needed to bring the measured effect to its halfway point. A higher EC50 goes with weaker potency.

Assay type in all cases: functional
The subject of experiment [1] is Rattus norvegicus. The experiment in a line: Mean blood pressure was determined in conscious male SHR at a dose of 0.1 mg/Kg.
Experiment [2] relates to Rattus norvegicus. Description: Mean blood pressure was determined in conscious male spontaneously hypertensive rats (SHR) at a dose of 0.3 mg/Kg.
The test system of experiment [3] is Rattus norvegicus. The experiment in a line: Antihypertensive activity in spontaneously hypertensive rats (SHR) expressed as dose required to produce fall in mean blood pressure (MBP) by peroral administration.
For experiment [4], the system named is Rattus norvegicus. Description: Tested for antihypertensive activity in spontaneously hypertensive rats (SHR) as dose required to produce fall in mean blood pressure (MBP) by peroral administration.
The subject of experiment [5] is Rattus norvegicus. Description: Heart rate was determined in conscious male spontaneously hypertensive rats (SHR) at a dose of 0.1 mg/Kg.
Experiment [6] concerns Rattus norvegicus. Description: Heart rate was determined in conscious male spontaneously hypertensive rats (SHR) at a dose of 0.3 mg/Kg.
For experiment [7], the system named is Rattus norvegicus. The experiment in a line: Tested for antihypertensive activity, duration of action at the dose of 0.03 mg/Kg was determined; ranges from 7-8h.
For experiment [8], the species on record is Rattus norvegicus. The experiment in a line: Tested for effective concentration required to relax contraction induced by 30 mM KCl in rat aorta.
The test system of experiment [9] is Rattus norvegicus. Description: Mean blood pressure was determined in conscious male spontaneously hypertensive rats (SHR) at a dose of 0.01 mg/Kg.
Experiment [10] has as its system Rattus norvegicus. Description: Mean blood pressure was determined in conscious male spontaneously hypertensive rats (SHR) at a dose of 0.03 mg/Kg.
Experiment [11] relates to Rattus norvegicus. Description: Heart rate was determined in conscious male spontaneously hypertensive rats (SHR) at a dose of 0.01 mg/Kg dose.
In experiment [12] the test system is Rattus norvegicus. The experiment in a line: Heart rate was determined in conscious male spontaneously hypertensive rats (SHR) at a dose of 0.03 mg/Kg dose.

As to `CC1(C)Oc2ccc(C#N)cc2[C@@H](N2CCCC2=O)[C@@H]1O` [LEVCROMAKALIM], the Blood pressure in [1] is recorded as 146 mmHg; in [2], 153 mmHg. In addition, the Dose in experiment [3] amounted to 0.3 mg/kg; in experiment [4] it was 0.1 mg/kg. The Heart rate in [5] was 318 beats min-1; in experiment [6], 313 beats min-1. In addition, in experiment [7], the Duration of action was found to be 7 h.

As for `CC1(C)Oc2ccc(C#N)cc2C(N2CCCC2=O)C1O` (stereo unspecified) [CROMAKALIM], the response in experiment [8] was half-maximal at 150 nM (EC50).

In the case of `N#CCC/N=C(\S)C1=CC(CF)(CF)Oc2ccc([N+](=O)[O-])cc21`, the Blood pressure was found to be 156 mmHg in experiment [9] and 155 mmHg in experiment [10]. Besides, the results for the Dose in experiment [3] and in experiment [4] were 0.03 mg/kg and 0.01 mg/kg, respectively. The EC50 in [8] is 0.3 nM. Also, the results for the Heart rate in experiment [11] and in experiment [12] were 310 beats min-1 and 323 beats min-1, respectively. Moreover, in experiment [7], the Duration of action worked out at 7 h.
